Measured values reported in ChEMBL document CHEMBL4665893, “Scalable Synthesis, In Vitro cccDNA Reduction, and In Vivo Antihepatitis B Virus Activity of a Phosphonomethoxydeoxythreosyl Adenine Prodrug” (J Med Chem, 2020).
Calls of active or inactive are those of the source. The calls are words filed in the database; no cut-off is given here.

Legend:
Hepatitis B virus [1] = assay: Antiviral activity against ETV-resistant and adenovirus AdH294-7LR harboring wild-type HBV infected in human HepG2 cells assessed as reduction in viral replicative intermediate DNAs at 4 to 1000 nM incubated for 5 days by Southern blot analysis; type: functional, organism-based; details: time 5.0 day
Hepatitis B virus [2] = assay: Antiviral activity against ETV-resistant and adenovirus AdH294-7LR harboring wild-type HBV infected in human HepG2 cells assessed as viral replicative intermediate DNA level at 4 nM incubated for 5 days by Southern blot analysis (reference value: 100%); type: functional; details: time 5 day
Hepatitis B virus [3] = assay: Antiviral activity against ETV-resistant and adenovirus AdH294-7LR harboring wild-type HBV infected in human HepG2 cells assessed as viral replicative intermediate DNA level at 13 nM incubated for 5 days by Southern blot analysis (reference value: 100%); type: functional; details: time 5 day
Hepatitis B virus [4] = assay: Antiviral activity against ETV-resistant and adenovirus AdH294-7LR harboring wild-type HBV infected in human HepG2 cells assessed as viral replicative intermediate DNA level at 40 nM incubated for 5 days by Southern blot analysis (reference value: 100%); type: functional; details: time 5 day
Hepatitis B virus [5] = assay: Antiviral activity against ETV-resistant and adenovirus AdH294-7LR harboring wild-type HBV infected in human HepG2 cells assessed as viral replicative intermediate DNA level at 120 nM incubated for 5 days by Southern blot analysis (reference value: 100%); type: functional; details: time 5 day
Hepatitis B virus [6] = assay: Antiviral activity against ETV-resistant and adenovirus AdH294-7LR harboring wild-type HBV infected in human HepG2 cells assessed as viral replicative intermediate DNA level at 370 nM incubated for 5 days by Southern blot analysis (reference value: 100%); type: functional; details: time 5 day
Hepatitis B virus [7] = assay: Antiviral activity against ETV-resistant and adenovirus AdH294-7LR harboring wild-type HBV infected in human HepG2 cells assessed as viral replicative intermediate DNA level at 10000 nM incubated for 5 days by Southern blot analysis (reference value: 100%); type: functional; details: time 5 day
Hepatitis B virus [8] = assay: Antiviral activity against adenovirus AdH294-WT harboring wild-type HBV genotype D accession #V01460 infected in human HepG2 cells assessed as reduction in viral replicative intermediate DNA level at 13 nM incubated for 5 days by Southern blot analysis (reference value: 100%); type: functional; parameters: scale not given: the % may be the effect or the level left; details: time 5 day
Hepatitis B virus [9] = assay: Antiviral activity against adenovirus AdH294-WT harboring wild-type HBV genotype D accession #V01460 infected in human HepG2 cells assessed as reduction in viral replicative intermediate DNA level at 370 nM incubated for 5 days by Southern blot analysis (reference value: 100%); type: functional; parameters: scale not given: the % may be the effect or the level left; details: time 5 day
Hepatitis B virus [10] = assay: Antiviral activity against adenovirus AdH294-WT harboring wild-type HBV genotype D accession #V01460 infected in human HepG2 cells assessed as reduction in viral replicative intermediate DNA level at 1100 nM incubated for 5 days by Southern blot analysis (reference value: 100%); type: functional; parameters: scale not given: the % may be the effect or the level left; details: time 5 day
Hepatitis B virus [11] = assay: Antiviral activity against adenovirus AdH294-WT harboring wild-type HBV genotype D accession #V01460 infected in human HepG2 cells assessed as reduction in viral replicative intermediate DNA level at 3300 nM incubated for 5 days by Southern blot analysis (reference value: 100%); type: functional; parameters: scale not given: the % may be the effect or the level left; details: time 5 day
Hepatitis B virus [12] = assay: Antiviral activity against adenovirus AdH294-WT harboring wild-type HBV genotype D accession #V01460 infected in human HepG2 cells assessed as reduction in viral replicative intermediate DNA level at 10000 nM incubated for 5 days by Southern blot analysis (reference value: 100%); type: functional; parameters: scale not given: the % may be the effect or the level left; details: time 5 day
Hepatitis B virus [13] = assay: Antiviral activity against HBV infected in human HepDE19 cells assessed as reduction in HBV cccDNA incubated for 9 days by qPCR analysis; type: functional, organism-based; details: HepDE19, 216 h
[14] = Selectivity index, […] against HBV infected in human HepDE19 cells to CC50 for toxicity in human HepDE19 cells; type: cell-based; details: read-out: Ratio CC50/IC50
[15] = Toxicity in HBV infected hydrodynamic injection C57BL/6 mouse model assessed as effect on body weight at 0.6 to 60 mg/kg, po QD for 6 days; type: organism-based; details: in vivo, 144 h, dose 0.6-60 mg/kg, time 6 day
[16] = Toxicity in C57BL/6 mouse assessed as induction of mortality at 60 mg/kg, po for 14 days; type: organism-based; details: in vivo, 336 h, time 14 day
[17] = Toxicity in C57BL/6 mouse assessed as induction of functional deficit at 60 mg/kg, po for 14 days; type: organism-based; details: in vivo, 336 h, time 14 day
[18] = Toxicity in C57BL/6 mouse assessed as induction of body weight loss at 60 mg/kg, po for 14 days relative to control; type: organism-based; details: in vivo, 336 h, time 14 day
[19] = Toxicity in C57BL/6 male mouse assessed as increase in neutrophils level at 60 mg/kg, po for 14 days by hematology analysis; type: organism-based; details: in vivo, 336 h, time 14 day
[20] = Toxicity in C57BL/6 male mouse assessed as reduction in erythrocytes level at 60 mg/kg, po for 14 days by hematology analysis; type: organism-based; details: in vivo, 336 h, time 14 day
[21] = Toxicity in C57BL/6 male mouse assessed as reduction in hematocrit level at 60 mg/kg, po for 14 days by hematology analysis; type: organism-based; details: in vivo, 336 h, time 14 day
[22] = Toxicity in C57BL/6 male mouse assessed as reduction in lymphocytes level at 60 mg/kg, po for 14 days by hematology analysis; type: organism-based; details: in vivo, 336 h, time 14 day
[23] = Toxicity in C57BL/6 male mouse assessed as effect on clinical chemistry level at 60 mg/kg, po for 14 days; type: organism-based; details: in vivo, 336 h, time 14 day
[24] = Toxicity in C57BL/6 female mouse assessed as effect on clinical chemistry level at 60 mg/kg, po for 14 days; type: organism-based; details: in vivo, 336 h, time 14 day
[25] = Toxicity in C57BL/6 female mouse assessed as increase in thymus weight level at 60 mg/kg, po for 14 days; type: organism-based; details: in vivo, 336 h, time 14 day
[26] = Genotoxicity in Salmonella typhimurium at 1 uM by Ames test; type: toxicity; details: salmonella enterica subsp. enterica serovar typhimurium
[27] = Genotoxicity in Salmonella typhimurium TA98 assessed as increase in number of spontaneous revertants colonies by Ames test; type: toxicity; details: salmonella enterica subsp. enterica serovar typhimurium, 1 µM
[28] = Genotoxicity in Salmonella typhimurium TA1535 assessed as increase in number of spontaneous revertants colonies by Ames test; type: toxicity; details: salmonella enterica subsp. enterica serovar typhimurium, 1 µM
[29] = Toxicity in C57BL/6 female mouse assessed as increase in neutrophils level at 60 mg/kg, po for 14 days by hematology analysis; type: organism-based; details: in vivo, 336 h, time 14 day
[30] = Toxicity in C57BL/6 female mouse assessed as reduction in hemoglobin level at 60 mg/kg, po for 14 days by hematology analysis; type: organism-based; details: in vivo, 336 h, time 14 day
[31] = Toxicity in C57BL/6 female mouse assessed as reduction in hematocrit level at 60 mg/kg, po for 14 days by hematology analysis; type: organism-based; details: in vivo, 336 h, time 14 day
[32] = Toxicity in C57BL/6 female mouse assessed as reduction in mean corpuscular volume level at 60 mg/kg, po for 14 days by hematology analysis; type: organism-based; details: in vivo, 336 h, time 14 day
[33] = Toxicity in C57BL/6 female mouse assessed as reduction in lymphocytes level at 60 mg/kg, po for 14 days by hematology analysis; type: organism-based; details: in vivo, 336 h, time 14 day

## CC(C)CCOC(=O)C[C@H](NP(=O)(CO[C@H]1CO[C@@H](n2cnc3c(N)ncnc32)C1)Oc1ccccc1)C(=O)OCCC(C)C (mixture of isomers)
Hepatitis B virus [1]
  Activity: Active
Hepatitis B virus [2]
  Activity: 98.2%
Hepatitis B virus [3]
  Activity: 101.5%
Hepatitis B virus [4]
  Activity: 59.1%
Hepatitis B virus [5]
  Activity: 38.5%
Hepatitis B virus [6]
  Activity: 20.2%
Hepatitis B virus [7]
  Activity: 5.9%
Hepatitis B virus [8]
  Activity: 22.4%
Hepatitis B virus [9]
  Activity: 1.8%
Hepatitis B virus [10]
  Activity: 0.7%
Hepatitis B virus [11]
  Activity: 0%
Hepatitis B virus [12]
  Activity: 0%
Hepatitis B virus [13]
  IC50: 6 nM
Hepatitis B virus [13]; time 9 day
  IC90: 70 nM
[14]
  selectivity ratio: 37
[15]
  Activity: Non-Toxic
[16]
  Activity: Non-Toxic
[17]
  Activity: Non-Toxic
[18]
  Activity: 4%
[19]
  Activity: Toxic
[20]
  Activity: Toxic
[21]
  Activity: Toxic
[22]
  Activity: Toxic
[23]
  Activity: Non-Toxic
[24]
  Activity: Non-Toxic
[25]
  Activity: Toxic
[26]
  Activity: Non-Toxic
[27]
  Activity: Non-Toxic
[28]
  Activity: Non-Toxic
[29]
  Activity: Non-Toxic
[30]
  Activity: Non-Toxic
[31]
  Activity: Non-Toxic
[32]
  Activity: Non-Toxic
[33]
  Activity: Non-Toxic
